In experiment [1] the test system is 1b (con1) replicon cells. Description: HCV 1b replicon inhibitory activity (luciferase, Britelite Plus). The class given is cell-based, hepatitis C virus. To be noted: read-out: IC50 value (95% Confidence Intervals) pM Replicon 1B assay. On the procedure: (§1) Test compounds were solubilised to 4 mM in 100% DMSO. Dilutions were made to the desired starting concentration in 100% DMSO and then 1 in 3 dilutions made, again in 100% DMSO. 0.5 μl of each sample was added to 384-well assay plates. White Lumitrac (Greiner) plates were used for the 1a and 1b replicon assays and black, clear bottomed (Greiner) plates were used for the WST-1 cytotoxity assay.
1b (con1) replicon cells (pFK1389lucubineo/NS3-3′/ET/9B, licensed from Ralf Bartenschlager, University of Heidelberg) were resuspended to a concentration of 1.4×10^5 cells/ml by addition of pre-warmed medium (DMEM+10% FCS). 50 μl of this suspension was added to each well of a 384-well assay plate (Lumitrac, Greiner) already containing 0.5 μl of test compound.
All plates were covered with gas permeable seals and incubated at 37° C., 5% CO2 for 48 hours. After 48 hours, the plate was removed from the incubator and left to cool to room temperature for 15-30 mins. 35 ul of reconstituted Lyophilised Britelite Plus Substrate (PerkinElmer, 6016767) to medium was added to each well. Luminescence was read after 1 min but before 15 mins on an EnVision (Perkin Elmer) plate reader. The half maximal effective concentration (1050) values were calculated by constructing log concentration-response curves for each compound.

The subject of experiment [2] is 1a-H77 replicon cells. Description: HCV 1a replicon inhibitory activity (Renilla luciferase). Format: cell-based, hepatitis C virus. To be noted: read-out: IC50 value (95% Confidence Intervals) pM Replicon 1A assay. On the procedure: as §1
1a-H77 replicon cells (licensed from Apath LLC) were resuspended to a concentration of 1.4×10^5 cells/ml by addition of pre-warmed assay medium (Dulbecco's Modified Eagle's Medium (DMEM)+10% fetal calf serum (FCS)). 50 μl of this suspension was added to each well of a 384-well assay plate (Lumitrac, Greiner), already containing 0.5 μl of test compound.
All plates were covered with gas permeable seals and incubated at 37° C., 5% CO2 for 48 hours. After 48 hours, the assay plate was removed from the incubator and left to cool to room temperature for 15 to 30 mins. Medium was removed from the wells and 5 μl 1× lysis buffer (from Promega's Renilla Luciferase assay kit, E2820) was added to each well. The plate was incubated at room temperature for 15 mins then 15 μl 1×Assay Substrate (from the same kit) was added to each well. Luminescence was read immediately using an EnVision (Perkin Elmer) plate reader. The half maximal effective concentration (1050) values were calculated by constructing log concentration-response curves for each compound.
(In antiviral work, replicon cells carry a viral genome segment that copies itself.)

The mark [3] stands for this setting: Hepatitis C virus, geometric mean, 95% confidence intervals in parentheses, 48 hours, medium with 10% FCS.
The mark [4] stands for this setting: geometric mean, 95% confidence intervals in parentheses, 48 hours, medium with 10% FCS.

We go through 12 compounds from patent publication US20110112100A1, “Hepatitis C Virus Inhibitors” (priority 2009, published 2011).

Structures can show the parent of a compound that is named as a salt. Where two headings read alike, the source gives them in different places.

What is called IC50 is the concentration that gives 50% inhibition. As to `COC(=O)N[C@H](C(=O)N1CCC[C@H]1c1nc(-c2ccc(-c3cnc4cc(-c5cnc([C@@H]6CCCN6C(=O)[C@H](NC(=O)OC)C(C)C)[nH]5)ccc4n3)cc2)c[nH]1)C(C)C` [Example 61, Methyl {(2S)-1-[(2S)-2-{4-[4-(6-{2-[(2S)-1-{(2R)-2-[(methoxycarbonyl)amino]-3-methylbutanoyl}pyrrolidin-2-yl]-1H-imidazol-5-yl}quinoxalin-2-yl)phenyl]-1H-imidazol-2-yl}pyrrolidin-1-yl]-3-methyl-1-oxobutan-2-yl}carbamate trifluoroacetic acid salt], the IC50 stood at 83.5 pM in experiment [1] (Hepatitis C virus, 48 h) and 6400 pM in experiment [2] (Hepatitis C virus, 48 h).
On to `COC(=O)NCC(=O)N1CCC[C@H]1c1ncc(-c2ccc3nc(-c4ccc(-c5c[nH]c([C@@H]6CCCN6C(=O)[C@@H](NC(=O)OC)C(C)C)n5)cc4)cnc3c2)[nH]1` [Example 65, Methyl {2-[(2S)-2-[5-[2-(4-{2-[(2S)-1-{(2S)-2-[(methoxycarbonyl)amino]-3-methylbutanoyl}pyrrolidin-2-yl]-1H-imidazol-4-yl}phenyl)quinoxalin-6-yl]-1H-imidazol-2-yl}pyrrolidin-1-yl]-2-oxoethyl)carbamate trifluoroacetic acid salt], for which the IC50 in experiment [1] (Hepatitis C virus, 48 h) stood at 54.5 pM; in experiment [2] (Hepatitis C virus, 48 h), 700 pM.
Regarding `COC(=O)N[C@H](C(=O)N1CCC[C@H]1c1nc(-c2ccc(-c3cnc4cc(-c5cnc([C@@H]6CCCN6C(=O)[C@@H](C)NC(C)=O)[nH]5)ccc4n3)cc2)c[nH]1)C(C)C` [Example 46, Methyl {(2S)-1-[(2S)-2-{4-[4-(6-(2-[(2S)-1-(N-acetyl-D-alanyl)pyrrolidin-2-yl]-1H-imidazol-5-yl}quinoxalin-2-yl)phenyl]-1H-imidazol-2-yl}pyrrolidin-1-yl]-3-methyl-1-oxobutan-2-yl}carbamate trifluoroacetic acid salt], the IC50 in experiment [1] (Hepatitis C virus, 48 h) was determined as 44.2 pM; in experiment [2] (Hepatitis C virus, 48 h) it was 803 pM.
Turning to `CCCC[C@@H](NC(=O)OC)C(=O)N1CCC[C@H]1c1ncc(-c2ccc3nc(-c4ccc(-c5c[nH]c([C@@H]6CCCN6C(=O)[C@@H](NC(=O)OC)C(C)C)n5)cc4)cnc3c2)[nH]1` [Example 78, Methyl {(2R)-1-[(2S)-2-{5-[2-(4-{2-[(2S)-1-{(2S)-2-[(methoxycarbonyl)amino]-3-methylbutanoyl}pyrrolidin-2-yl]-1H-imidazol-4-yl}phenyl)quinoxalin-6-yl]-1H-imidazol-2-yl}pyrrolidin-1-yl]-1-oxohexan-2-yl}carbamate trifluoroacetic acid salt], the IC50 is 45.5 pM in experiment [1] (Hepatitis C virus, 48 h) and 443 pM in experiment [2] (Hepatitis C virus, 48 h).
For `CCC[C@H](NC(=O)OC)C(=O)N1CCC[C@H]1c1ncc(-c2ccc3nc(-c4ccc(-c5c[nH]c([C@@H]6CCCN6C(=O)[C@@H](NC(=O)OC)C(C)C)n5)cc4)cnc3c2)[nH]1` [Example 55, Methyl {(2S)-1-[(2S)-2-{5-[2-(4-{2-[(2S)-1-{(2S)-2-[(methoxycarbonyl)amino]-3-methylbutanoyl}pyrrolidin-2-yl]-1H-imidazol-4-yl}phenyl)quinoxalin-6-yl]-1H-imidazol-2-yl}pyrrolidin-1-yl]-1-oxopentan-2-yl}carbamate trifluoroacetic acid salt], the IC50 in experiment [1] (Hepatitis C virus, 48 h) stood at 8.85 pM; in experiment [2] (Hepatitis C virus, 48 h), 18.1 pM.
Regarding `COC(=O)N[C@H](C(=O)N1CCC[C@H]1c1nc(-c2ccc(-c3nc4ccc(-c5c[nH]c([C@@H]6CCCN6C(=O)[C@@H](NC(=O)OC)C(C)C)n5)cc4nc3O)cc2)c[nH]1)C(C)C` [Example 18, Methyl {(2S)-1-[(2S)-2-{4-[4-(3-hydroxy-6-{2-[(2S)-1-{(2S)-2-[(methoxycarbonyl)amino]-3-methylbutanoyl}pyrrolidin-2-yl]-1H-imidazol-4-yl}quinoxalin-2-yl)phenyl]-1H-imidazol-2-yl}pyrrolidin-1-yl]-3-methyl-1-oxobutan-2-yl}carbamate], the IC50 in experiment [1] (setting [3]) is 35.8 pM; in experiment [2] (setting [3]) it was 536 pM.
With `COC(=O)N[C@H](C(=O)N1CCC[C@H]1c1nc(-c2ccc(-c3cnc4cc(-c5cnc([C@@H]6CCCN6C(=O)C6(NC(=O)OC)CCC6)[nH]5)ccc4n3)cc2)c[nH]1)C(C)C` [Example 50, Methyl {(2S)-1-[(2S)-2-{4-[4-(6-{2-[(2S)-1-({1-[(methoxycarbonyl)amino]cyclobutyl}carbonyl)pyrrolidin-2-yl]-1H-imidazol-5-yl}quinoxalin-2-yl)phenyl]-1H-imidazol-2-yl}pyrrolidin-1-yl]-3-methyl-1-oxobutan-2-yl}carbamate trifluoroacetic acid salt], the IC50 was 77.2 pM in experiment [1] (Hepatitis C virus, 48 h) and 356 pM in experiment [2] (Hepatitis C virus, 48 h).
As to `CC[C@@H](NC(C)=O)C(=O)N1CCC[C@H]1c1ncc(-c2ccc3nc(-c4ccc(-c5c[nH]c([C@@H]6CCCN6C(=O)[C@@H](NC(=O)OC)C(C)C)n5)cc4)cnc3c2)[nH]1` [Example 38, Methyl {(2S)-1-[(2S)-2-(4-{4-[6-(2-{(2S)-1-[(2R)-2-(acetylamino)butanoyl]pyrrolidin-2-yl}-1H-imidazol-5-yl)quinoxalin-2-yl]phenyl}-1H-imidazol-2-yl)pyrrolidin-1-yl]-3-methyl-1-oxobutan-2-yl} carbamate trifluoroacetic acid salt], the IC50 in experiment [1] (setting [4]) is 71.9 pM; in experiment [2] (setting [4]), 1500 pM.
Take `COC(=O)N[C@H](C(=O)N1CCC[C@H]1c1nc(-c2ccc(-c3cnc4cc(-c5cnc([C@@H]6CCCN6C(=O)CNC(=O)c6[nH]nc7ccccc67)[nH]5)ccc4n3)cc2)c[nH]1)C(C)C` [Example 44, Methyl {(2S)-1-[(2S)-2-(4-{4-[6-(2-{(2S)-1-[N-(2H-indazol-3-ylcarbonyl)glycyl]pyrrolidin-2-yl}-1H-imidazol-5-yl)quinoxalin-2-yl]phenyl}-1H-imidazol-2-yl)pyrrolidin-1-yl]-3-methyl-1-oxobutan-2-yl} carbamate trifluoroacetic acid salt]: the IC50 worked out at 100 pM in experiment [1] (setting [4]) and 3510 pM in experiment [2] (setting [4]).
On to `COC(=O)N[C@H](C(=O)N1CCC[C@H]1c1nc(-c2cnc(-c3cnc4cc(-c5cnc([C@@H]6CCCN6C(=O)[C@@H](NC(=O)OC)C(C)C)[nH]5)ccc4n3)nc2)c[nH]1)C(C)C` [Example 21, Methyl {(2S)-1-[(2S)-2-{5-[2-(5-{2-[(2S)-1-{(2S)-2-[(methoxycarbonyl)amino]-3-methylbutanoyl}pyrrolidin-2-yl]-1H-imidazol-4-yl}pyrimidin-2-yl)quinoxalin-6-yl]-1H-imidazol-2-yl}pyrrolidin-1-yl]-3-methyl-1-oxobutan-2-yl}carbamate], for which the values for the IC50 in experiment [1] (setting [3]) and in experiment [2] (setting [3]) were 222 pM and 671 pM, respectively.
For the compound `CC[C@@H](NC(=O)OC)C(=O)N1CCC[C@H]1c1ncc(-c2ccc3nc(-c4ccc(-c5c[nH]c([C@@H]6CCCN6C(=O)[C@@H](NC(=O)OC)C(C)C)n5)cc4)cnc3c2)[nH]1` [Example 59, Methyl {(2S)-1-[(2S)-2-{4-[4-(6-{2-[(2S)-1-{(2R)-2-[(methoxycarbonyl)amino]butanoyl}pyrrolidin-2-yl]-1H-imidazol-5-yl}quinoxalin-2-yl)phenyl]-1H-imidazol-2-yl}pyrrolidin-1-yl]-3-methyl-1-oxobutan-2-yl} carbamate trifluoroacetic acid salt], the IC50 in experiment [1] (setting [4]) was 97.5 pM; in experiment [2] (setting [4]) it was 2390 pM.
Regarding `COC(=O)NC(C(=O)N1CCC[C@H]1c1ncc(-c2ccc3nc(-c4ccc(-c5c[nH]c([C@@H]6CCCN6C(=O)[C@@H](NC(=O)OC)C(C)C)n5)cc4)cnc3c2)[nH]1)C1CCCC1` (stereo partly drawn) [Example 66, Methyl {(2S)-1-[(2S)-2-{4-[4-(6-{2-[(2S)-1-{cyclopentyl[(methoxycarbonyl)amino]acetyl}pyrrolidin-2-yl]-1H-imidazol-5-yl}quinoxalin-2-yl)phenyl]-1H-imidazol-2-yl}pyrrolidin-1-yl]-3-methyl-1-oxobutan-2-yl} carbamate trifluoroacetic acid salt], the IC50 turned out to be 21.7 pM in experiment [1] (setting [4]) and 1720 pM in experiment [2] (setting [4]).
